Experimental findings from US20240300934A1, “COMPOUNDS FOR MODULATING MYCOBACTERIUM TUBERCULOSIS RESPONSE” (priority 2021, published 2024) are described below.

For data set [1], the system named is rv2390c′::GFP reporter Mtb strain. The data set is classed as cell-based, Mycobacterium tuberculosis. The note with it: for rv2390c′::GFP Cl− response phenotype: compared to C6.
The nature of data set [2]: Mouse liver microsomal stability. The data set is classed as in vitro ADME. As to conditions: mouse liver microsomes; read-out: MLM t1/2. For orientation: Liver microsomes are vesicles of endoplasmic reticulum, rich in cytochrome P450 enzymes.
Protocol: (§1) Assays examining mouse and human liver microsomal stability, kinetic aqueous solubility, mouse and human plasma protein binding and stability, and human cytochrome P450 inhibition characteristics of the compounds were run by BioDuro, Incorporated, using standard protocols as previously described (Wang et al, 2020). hERG inhibition assays were also performed by BioDuro, Incorporated.
Data set [3] can be described thus: Kinetic aqueous solubility in pH 7.4 PBS. The data set is classed as physicochemical. As to conditions: PBS, pH 7.4, aqueous buffer, kinetic from dmso stock; Table 2; read-out: Kinetic Aqueous Solubility S.
Protocol: as §1
The nature of data set [4]: Mouse pharmacokinetics, single oral dose. The data set is classed as in vivo, CD-1 mice. As to conditions: female, single 25 mg/kg po dose; for Kp at 5 h: CD-1, mouse, lung vs plasma, read-out: Mouse PK Clung/Cplasma at t = 5 h; for AUC(0-t): mouse, plasma, CD-1 mice, read-out: Mouse PK AUC0-5h. How it is done: Blood samples were collected in K2EDTA coated tubes pre-dose, 0.5, 1, 3 and 5 hrs post-dose, placed on ice, and centrifuged to recover plasma. The recovered plasma was kept at −80° C. as needed prior to analysis, which was performed as previously described (Wang et al, 2020). In brief, a Sciex Applied Biosystems Qtrap 4000 triple-quadrupole mass spectrometer coupled to an Agilent 1260 HPLC system was used for HPLC coupled to tandem mass spectrometry (LC-MS/MS) quantitative analysis of the samples, with chromatography attained using an Agilent Zorbax SB-C8 column (2.1×30 mm; particle size, 3.5 μm) and a reverse phase gradient elution. The aqueous mobile phase consisted of Milli-Q deionized water with 0.1% formic acid (A), while the organic mobile phase was 0.1% formic acid in acetonitrile (B). The gradient set-up was as follows: 5-90% B over 2 mins, 1 min at 90% B, then an immediate drop to 5% B and an additional 1 min at 5% B. Quantification of molecules was carried out via multiple-reaction monitoring of parent/daughter transitions in electrospray positive-ionization mode, and sample analyses accepted if quality control and standard samples had concentrations within 20% of the nominal concentration. Preparation of compounds for generation of standard curves and quality control spiking solutions were performed as previously described (Wang et al, 2020). Data were processed using Analyst software (Version 1.6.2; Applied Biosystems Sciex).

Another data set relates to Mtb in J774 cells. In words: Mtb growth in J774 macrophage-like cells (mKO fluorescence). The data set is classed as cell-based, Mycobacterium tuberculosis. The note with it: for % Reduction of Intracellular Infection (J774.1 cells) at 10 μM cmpd: 10 μM compound; for Inhibition of Mtb growth in J774 cells phenotype: compared to C6. How it is done: For the tertiary screen of selected hit compounds in J774 murine macrophage-like cells, 30,000 J774 cells/well were seeded in bar-coded 384-well black, clear bottom plates in a 30 μl volume in J774 infection media (DMEM+10% FBS+1 mM sodium pyruvate+2 mM L-glutamine) using a ThermoFisher Multidrop Combi reagent dispenser, one day prior to assay start. On the day of the assay, log-phase Mtb constitutively expressing mKO were pelleted and resuspended in 1 ml basal uptake buffer (0.5% bovine serum albumin+25 mM dextrose+0.5 mM MgCl2+1 mM CaCl2+0.1% gelatin in phosphate buffered saline (PBS), passed 6× though a tuberculin syringe with a 25 G×5/8″ needle, then resuspended in J774 infection media to a final OD600=0.2. 10 μl of this bacterial suspension was added to each well of the 384-well plates containing the J774 cells, followed by addition of 10 μl of the appropriate compounds (pre-aliquoted in v-bottom plates in a 1:1 mix of PBS:J774 infection media). Addition of Mtb and compounds were conducted using a Janus Ministation. For each test plate, two columns of controls (16 wells each) were included, with one column consisting of treatment with DMSO as a carrier control (negative control), and the other column consisting of treatment with 5 μM rifampicin (positive control). This tertiary assay was done as a dose-response assay in duplicate runs, with compounds tested beginning at a final concentration of 20 μM and two-fold dilutions down to 0.039 μM. Plates were kept in humidified ziplock bags in a 37° C., 5% CO2 incubator. 6 days post-infection, mKO fluorescence signal was read using a PerkinElmer EnVision multimode plate reader (bottom read filter, excitation 530/8 nm, Bodipy TMR D555 single mirror, emission 579/25 nm). mKO fluorescence in DMSO-treated control samples were defined as 100% growth, and fluorescence observed in treatment conditions calculated as a percentage from that set value.
For J774 infection in 96-well plates, 180,000 J774 cells were seeded per well in 180 μl of J774 infection media one day prior to infection. On the day of the assay, log-phase Mtb constitutively expressing mKO were pelleted and resuspended in 1 ml basal uptake buffer, passed 6× though a tuberculin syringe with a 25 G×5/8″ needle, then resuspended in J774 infection media to a final OD600=0.2. Media was removed from 96-well plate containing the J774 cells, with 140 μl of fresh J774 infection media added back to each well. 40 μl of the Mtb suspension at OD600=0.2 was added to each well, followed by addition of appropriate concentration of compound or DMSO in a 20 μl final volume in J774 infection media (compound final concentration 10 μM, rifampicin final concentration 5 μM, DMSO final concentration 0.1%/well). Bacterial mKO fluorescence was read immediately after infection using a Biotek Synergy Neo2 microplate reader (bottom read monochromator, excitation 543/10 nm, emission 565/10 nm), and again 6 days post-infection. Plates were kept in humidified ziplock bags in a 37° C., 5% CO2 incubator. mKO fluorescence in DMSO-treated control samples were defined as 100% growth, and fluorescence observed in treatment conditions calculated as a percentage from that set value.

For another data set, the system named is Mtb. As to the kind of experiment: Mtb growth assay in cholesterol media (OD600). Format: cell-based, Mycobacterium tuberculosis.

Converted amounts (≈) assume the structure as drawn.

Consider `CCSc1ncc(CN2CCN(c3ncco3)CC2)cn1` [JSF-4747, 2-(4-((2-(ethylthio)pyrimidin-5-yl)methyl)piperazin-1-yl)oxazole], for which the “rv2390c′::GFP Cl− response phenotype” value in data set [1] is “Y”.
One may read the kinetic solubility as the concentration staying in solution when a stock, usually in DMSO, is diluted into the medium. `CCSc1ncc(CN2CCN(c3nc4ccc(C)cc4o3)CC2)cn1` [JSF-4527, 2-(4-((2-(ethylthio)pyrimidin-5-yl)methyl)piperazin-1-yl)-6-methylbenzo[d]oxazole]: the “rv2390c′::GFP Cl− response phenotype” value in data set [1] is recorded as “Y”. Besides, in data set [2], the half-life came to 38.7 min. For the same compound, the kinetic solubility in data set [3] is 13.7 µM (≈ 5.06 µg/mL). Further, in data set [4], the Kp at 5 h came to 0.55 and the AUC(0-t) came to 16.3 µg·h/mL. In the data set with Mtb in J774 cells, the “% Reduction of Intracellular Infection (J774.1 cells) at 10 μM cmpd” value amounted to 53.8 ± 2.1% and the “Inhibition of Mtb growth in J774 cells phenotype” value (shortened to “Inhibition of Mtb growth”) is “Y”.
On to `CCSc1ncc(CN2CCN(c3nc4ccc(C(F)(F)F)cc4o3)CC2)cn1` [JSF-4507, 2-(4-((2-(ethylthio)pyrimidin-5-yl)methyl)piperazin-1-yl)-6-(trifluoromethyl)benzo[d]oxazole], for which the “rv2390c′::GFP Cl− response phenotype” value in data set [1] was “Y”. Besides, the “Inhibition of Mtb growth” value in the data set on Mtb in J774 cells is given as “Y”.
As for `CCSc1ncc(CN2CCN(c3nc4cc(Cl)ccc4o3)CC2)cn1` [JSF-4477, 5-chloro-2-(4-((2-(ethylthio)pyrimidin-5-yl)methyl)piperazin-1-yl)benzo[d]oxazole], the “rv2390c′::GFP Cl− response phenotype” value in data set [1] is recorded as “Y”.
For `CCSc1ncc(CNCCNc2nc3ccccc3o2)cn1` [JSF-4547, N^1-(benzo[d]oxazol-2-yl)-N^2-((2-(ethylthio)pyrimidin-5-yl)methyl)ethane-1,2-diamine], in data set [1], the “rv2390c′::GFP Cl− response phenotype” value is recorded as “N”. The “Inhibition of Mtb growth” value in the data set with Mtb in J774 cells was “N”.
Consider `CCSc1ncc(CN2CCN(c3nc4cccc(C)c4o3)CC2)cn1` [JSF-4562, 2-(4-((2-(ethylthio)pyrimidin-5-yl)methyl)piperazin-1-yl)-7-methylbenzo[d]oxazole], for which the “rv2390c′::GFP Cl− response phenotype” value in data set [1] is “Y”. Moreover, in the data set on Mtb in J774 cells, the “Inhibition of Mtb growth” value is “Y”.
Take `CCSc1ncc(CN2CCN(c3nc4c(F)cccc4o3)CC2)cn1` [JSF-4602, 2-(4-((2-(ethylthio)pyrimidin-5-yl)methyl)piperazin-1-yl)-4-fluorobenzo[d]oxazole]: in data set [1], the “rv2390c′::GFP Cl− response phenotype” value is recorded as “Y”. The “Inhibition of Mtb growth” value with Mtb in J774 cells was “Y”.
As to `CSc1ncc(CN2CCN(c3nc4ccccc4o3)CC2)cn1` [JSF-4730, 2-(4-((2-(methylthio)pyrimidin-5-yl)methyl)piperazin-1-yl)benzo[d]oxazole], the “rv2390c′::GFP Cl− response phenotype” value in data set [1] is “Y”. Also, the “Inhibition of Mtb growth” value with Mtb in J774 cells is reported as “Y”.
As for `CCSc1ncc(CN2CCN(c3nc4cccc(Cl)c4o3)CC2)cn1` [JSF-4603, 7-chloro-2-(4-((2-(ethylthio)pyrimidin-5-yl)methyl)piperazin-1-yl)benzo[d]oxazole], the “rv2390c′::GFP Cl− response phenotype” value in data set [1] is “Y”. For the same compound, the “Inhibition of Mtb growth” value in the data set with Mtb in J774 cells is recorded as “Y”.
For the compound `CCSc1ncc(CN2CCN(c3nc4cc(C(F)(F)F)ccc4o3)CC2)cn1` [JSF-4526, 2-(4-((2-(ethylthio)pyrimidin-5-yl)methyl)piperazin-1-yl)-5-(trifluoromethyl)benzo[d]oxazole], in data set [1], the “rv2390c′::GFP Cl− response phenotype” value is “Y”. The half-life in data set [2] came to 32 min. The kinetic solubility in data set [3] amounted to 38.6 µM (≈ 16.3 µg/mL). In data set [4], the Kp at 5 h is 0.44 and the AUC(0-t) was 27.5 µg·h/mL. Moreover, in the data set with Mtb in J774 cells, the “% Reduction of Intracellular Infection (J774.1 cells) at 10 μM cmpd” value came to 52.4 ± 1.4% and the “Inhibition of Mtb growth” value is “Y”.
With `CCSc1ncc(CN2CCN(c3nc4c(C)cccc4o3)CC2)cn1` [JSF-4551, 2-(4-((2-(ethylthio)pyrimidin-5-yl)methyl)piperazin-1-yl)-4-methylbenzo[d]oxazole], the “rv2390c′::GFP Cl− response phenotype” value in data set [1] is recorded as “Y”. Further, the “Inhibition of Mtb growth” value in the data set on Mtb in J774 cells is “Y”.
Take `CCSc1ncc(CN2CCN(c3nc4cccc(C(F)(F)F)c4o3)CC2)cn1` [JSF-4601, 2-(4-((2-(ethylthio)pyrimidin-5-yl)methyl)piperazin-1-yl)-7-(trifluoromethyl)benzo[d]oxazole]: the “rv2390c′::GFP Cl− response phenotype” value in data set [1] was “Y”.
For the compound `CCSc1ncc(CN2CCN(c3nc4ccccc4s3)CC2)cn1` [JSF-4298, 2-(4-((2-(ethylthio)pyrimidin-5-yl)methyl)piperazin-1-yl)benzo[d]thiazole], in data set [1] (10 μM, 250 mM NaCl), the “rv2390c′::GFP reporter signal upon Mtb exposure to high [Cl−] (in words)” value is “continuing to demonstrate the phenotypes seen with the parental C6 compound”. For the same compound, the “rv2390c′::GFP Cl− response phenotype” value in data set [1] is “Y”. Further, in the data set with Mtb (10 μM, OD600), the “Mtb growth in cholesterol media (in words)” value was “continuing to demonstrate the phenotypes seen with the parental C6 compound”. The “Growth inhibition in cholesterol media phenotype” value in the data set on Mtb (compared to C6) is reported as “Y”. In the data set on Mtb in J774 cells (10 μM, 6 days post-infection), the “Mtb growth in J774 cells (in words)” value is “continuing to demonstrate the phenotypes seen with the parental C6 compound”.
On to `CCSc1ncc(CN2CCN(c3nc4cccc(F)c4o3)CC2)cn1` [JSF-4516, 2-(4-((2-(ethylthio)pyrimidin-5-yl)methyl)piperazin-1-yl)-7-fluorobenzo[d]oxazole], for which the “rv2390c′::GFP Cl− response phenotype” value in data set [1] is reported as “N”. Also, the “Inhibition of Mtb growth” value with Mtb in J774 cells is on record as “Y”.
As to `CCSc1ncc(CN2CCN(c3nc4ccc(F)cc4o3)CC2)cn1` [JSF-4509, 2-(4-((2-(ethylthio)pyrimidin-5-yl)methyl)piperazin-1-yl)-6-fluorobenzo[d]oxazole], the “rv2390c′::GFP Cl− response phenotype” value in data set [1] is reported as “Y”.
`CCSc1ncc(CN2CCN(c3nc4cc(OC)ccc4o3)CC2)cn1` [JSF-4528, 2-(4-((2-(ethylthio)pyrimidin-5-yl)methyl)piperazin-1-yl)-5-methoxybenzo[d]oxazole]: the “rv2390c′::GFP Cl− response phenotype” value in data set [1] is recorded as “N”.
For the compound `CCSc1ncc(CN2CCN(c3nc4cc(C)ccc4o3)CC2)cn1` [JSF-4471, 2-(4-((2-(ethylthio)pyrimidin-5-yl)methyl)piperazin-1-yl)-5-methylbenzo[d]oxazole], in data set [1], the “rv2390c′::GFP Cl− response phenotype” value is “Y”. In the data set with Mtb in J774 cells, the “Inhibition of Mtb growth” value was “Y”.
As to `CCSc1ncc(CN2CCN(c3nc4c(Cl)cccc4o3)CC2)cn1` [JSF-4604, 4-chloro-2-(4-((2-(ethylthio)pyrimidin-5-yl)methyl)piperazin-1-yl)benzo[d]oxazole], in data set [1], the “rv2390c′::GFP Cl− response phenotype” value is “Y”. In addition, in the data set with Mtb in J774 cells, the “Inhibition of Mtb growth” value was “Y”.
Consider `CCSc1ncc(C(=O)N2CCN(c3nc4ccccc4o3)CC2)cn1` [JSF-4683, (4-(benzo[d]oxazol-2-yl)piperazin-1-yl)(2-(ethylthio)pyrimidin-5-yl)methanone], for which the “rv2390c′::GFP Cl− response phenotype” value in data set [1] is listed as “N”.
